From patent publication US20100196273A1, “NOVEL AGENT FOR IN VIVO PET IMAGING OF TUMOR PROLIFERATION” (Board of Regents, University of Texas System, priority 2007, published 2010)

What was measured:
hepatitis B virus (HBV) = details: reported, Liu et al. 1998; cited from earlier work
[1] = test system: human immunodeficiency virus; details: reported, Liu et al. 1998; cited from earlier work
[2] = reported, Liu et al. 1998; cited from earlier work
Epstein-Barr virus = details: reported, Liu et al. 1998; cited from earlier work
[3] = test system: Colo205 human colon cancer tumor xenografts; test: micro-PET imaging of tumor proliferative activity, Colo205 colon cancer xenografts; assay type: in vivo, nude mice; details: 3.7 MBq via tail vein, 2 h post-injection
Description: The radiotracers, [^18F]-FLT, [^18F]-D-FMAU and [^18F]-L-FMAU, were synthesized according literature methods in high specific activity. Human colon cancer cells, Colo205 were used to grow tumor xenografts in nude mice. Four nu/nu mice were injected (s.c.) with 3×10^6 cells onto the shoulder. When tumors were approximately 1 cm in diameter, PET imaging with [^18F]-FLT, [^18F]-D-FMAU [^18F]-L-FMAU were performed on three consecutive days using one tracer at a time. Each animal received 3.7 MBq of radiotracer via the tail vein, then dynamic imaging was performed using micro-PET up to 2 hours of post-injection.
However, tumor-to muscle ratio of [^18F]-FLT accumulation was lower than that of [^18F]-D-FMAU and [^18F]-L-FMAU. [^18F]-L-FMAU had higher uptake and tumor/muscle ratio compared to the D-[^18F]-FMAU, which is probably due to higher resistance to metabolic degradation.

[4] = test system: H3255 (slow growing) human NSCLC tumor xenografts; test: microPET imaging of tumor proliferative activity, H3255 NSCLC xenografts; assay type: in vivo, nude mice; details: 3.7 MBq via tail vein, 2 h post-injection
Description: (§1) All radiotracers were synthesized following literature methods. Two human NSCLC cell lines, H441 (rapidly growing) and H3255 (slow growing) were used to grow (s.c.) tumor xenografts in nude mice. Eight nu/nu mice were injected with 3×10^6 cells (H3255) onto right shoulder, and 3 weeks later, 3×10^6 cells (H441) were injected onto opposite shoulder. When tumors grew approximately 1 cm in diameter, PET imaging with [^18F]-FLT, [^18F]-D-FMAU [^18F]-L-FMAU were performed on three consecutive days. Each animal received 3.7 MBq of radiotracer via the tail vein, then dynamic scan was performed using micro-PET up to 2 hours of post-injection.
(§2) Tumor uptake and tumor-to-muscle (T/M) ratios of [^18F]-FLT, [^18F]-D-FMAU and [^18F]L-FMAU for different tumors are summarized in Table 1. […] On the other hand, tumor-to muscle ratio of [^18F]-FLT accumulation was higher than that for [^18F]-D-FMAU and [^18F]-L-FMAU.

[5] = test system: H441 (rapidly growing) human NSCLC tumor xenografts; test: microPET imaging of tumor proliferative activity, H441 NSCLC xenografts; assay type: in vivo, nude mice; details: 3.7 MBq via tail vein, 2 h post-injection
Description: as §1, §2

| Compound | antiviral activity against hepatitis B virus (hepatitis B virus (HBV)) | antiviral activity against human immunodeficiency virus [1] | cytotoxicity [2] | antiviral activity against Epstein-Barr virus (Epstein-Barr virus) | Tumor uptake % ID/g [3] | tumor-to-muscle (T/M) ratio [3] | Tumor uptake % ID/g [4] | tumor-to-muscle (T/M) ratio [4] | Tumor uptake % ID/g [5] | tumor-to-muscle (T/M) ratio [5] |
| --- | --- | --- | --- | --- | --- | --- | --- | --- | --- | --- |
| Cc1cn([C@H]2O[C@@H](CO)[C@H](O)[C@H]2F)c(=O)[nH]c1=O [L-FMAU, 2′-Deoxy-2′-fluoro-5-methyl-1-β-L-arabinofuranosyl-uracil] | potential antiviral activities | not human immunodeficiency virus | low cytotoxicity | potential antiviral activities | – | – | – | – | – | – |
| Cc1cn([C@@H]2O[C@H](CO)[C@@H](O)[C@@H]2[18F])c(=O)[nH]c1=O [[^18F]-D-FMAU] | – | – | – | – | 2.37 ± 0.58 % ID/g | 1.95 ± 0.37 | 4.49 ± 1.08 % ID/g | 1.96 ± 0.74 | 7.74 ± 1.39 % ID/g | 3.37 ± 1.19 |
| Cc1cn([C@H]2C[C@H]([18F])[C@@H](CO)O2)c(=O)[nH]c1=O [[^18F]-FLT, [^18F]-3′-deoxy-3′-fluorothymidine] | – | – | – | – | 5.20 ± 1.32 % ID/g | 1.51 ± 0.61 | 0.57 ± 0.33 % ID/g | 1.50 ± 0.90 | 5.10 ± 1.45 % ID/g | 12.94 ± 4.38 |
| Cc1cn([C@H]2O[C@@H](CO)[C@H](O)[C@H]2[18F])c(=O)[nH]c1=O [[^18F]-L-FMAU, 2′ deoxy-2′-[^18F]-fluoro-5-methyl-1-β-L-arabinofuranosyluracil] | – | – | – | – | 2.93 ± 0.75 % ID/g | 2.85 ± 0.89 | 1.38 ± 0.81 % ID/g | 1.62 ± 0.50 | 3.13 ± 1.11 % ID/g | 4.15 ± 1.82 |
